Data reported in patent US20100233231A1, “USE OF CRYOGENIC PROCESSING TO OBTAIN A SUBSTANTIALLY-THICKENED FORMULATION” (priority 2009, published 2010).

Test: Consistency and homogeneity of the formulation after cryo-processing (observation)
Type: physicochemical
Settings: 8 cycles
Procedure: Fish oil was cured to a film with the use of heat.
It was processed in a Spex Certiprep cryogrinder for 8 cycles, each cycle lasting 2.0 minutes and with a 2.0 minute between-cycle cool down to maintain the system at cryogenic temperatures.

CCCCCCCCCCCCCCCCO [Cetyl Alcohol]
consistency of resulting formulation (Example 7: 30% in 70% fish oil 30% Vitamin E, 30 impacts per second): highly viscous and smooth

O=C(CO)[C@@H](O)[C@H](O)[C@H](O)CO [Fructose]
consistency of resulting formulation (Example 5: 40% in 100% fish oil, 20 impacts per second): highly viscous upon standing and was extremely shear thinning

CO[C@H]1C[C@@H]2CC[C@@H](C)[C@@](O)(O2)C(=O)C(=O)N2CCCC[C@H]2C(=O)O[C@H]([C@H](C)C[C@@H]2CC[C@@H](O)[C@H](OC)C2)CC[C@H](C)/C=C(\C)[C@@H](O)[C@@H](OC)C(=O)[C@H](C)C[C@H](C)/C=C/C=C/C=C/1C [Rapamycin derivative]
consistency of resulting formulation (Example 2: 31% in 70% fish oil 30% vitamin E, 20 impacts per second): highly viscous and shear thinning with small crystals evident throughout the sample
